Experimental data published in patent US11072637B2, “Walnut oligopeptide powder, preparation method and application thereof” (Sinphar Tian-Li (Hangzhou) Pharmacy Company Limited, priority 2016, dated 2021).

What was measured:
Type in all cases: biochemical
Settings in all cases: 100 μg/mL
[1] = DPPH free radical scavenging experiment
Description: 1. DPPH Free Radical Scavenging Experiment: 1.1 Preparation of DPPH ethanol solution: precisely weighing 4 mg of […], putting into a 100 ml brown volumetric flask, and adding 50 ml of ethanol, the ultrasonic treatment was carried out for 30 seconds, ethanol was used for fixing the volume to scale, shaking, and the product needs to be freshly prepared when needed. 1.2 Preparation of test solution: precisely weighing 10 mg of walnut oligopeptide powder, and putting into a 50 ml brown volumetric flask, adding 30 ml of ethanol, carrying out ultrasonic treatment for 5 minutes, diluting with ethyl alcohol for fixing the volume to scale, and shaking. […]

[2] = ABTS+ free radical scavenging experiment
Description: 2. ABTS^+ Free Radical Scavenging Experiment: 2.1 Preparation of PBS buffer solution: weighing 8 g of sodium chloride, 0.2 g of potassium chloride, 0.24 g of monopotassium phosphate, and 3.62 g of disodium hydrogen phosphate dodecahydrate and putting them into a 1000 ml beaker, adding 800 ml of distilled water, stirring to dissolve, and adjusting the pH value to 7.4 by using hydrochloric acid or sodium hydroxide, transferring into a 1000 ml volumetric flask, adding distilled water to dilute, shaking evenly, and standing for later use. […] 2.5 Operation steps: accurately sucking 0.5 ml of test solution and 5 ml of ABTS working solution, and mixing uniformly; accurately sucking 0.5 ml of test solution and 5 ml of PBS buffer solution, and mixing uniformly; accurately sucking 5 ml of ABTS working solution and 0.5 ml of PBS buffer solution, and mixing uniformly, the absorbance was measured immediately at 734 nm, and the free radical removal rate was calculated according to the following formula: IR%=[1−(Ai−Aj)/A0]*100%; in which, Ai represents the absorbance of the mixture of the test solution and ABTS, Aj represents the absorbance of the mixture of the test solution and solvent, and A0 represents the absorbance of the mixture of ABTS and solvent. […]

[3] = SRSA superoxide anion free radical scavenging experiment
Description: 3. SRSA Superoxide Anion Free Radical Scavenging Experiment: 3.1 Preparation of 0.1 moL/L PBS buffer solution (pH 7.4): 80 g of sodium chloride, 2 g of potassium chloride, 2.4 g of monopotassium phosphate and 23.1 g of dipotassium hydrogen phosphate trihydrate were weighted and placed in 1000 ml beaker, adding 600 ml of distilled water, stirring to dissolve, and adjusting the pH to […] with hydrochloric acid or sodium hydroxide, transferring into 1000 ml volumetric flask, adding distilled water to dilute to the scale, shaking evenly, and standing for later use. […] 3.7 Operation steps: accurately sucking 0.5 ml of test solution and 5 ml of the working solution, and uniformly mixing; accurately sucking 0.5 ml of test solution and 5 ml of distilled water, and uniformly mixing; accurately sucking 5 ml of the working solution and 0.5 ml of distilled water, and uniformly mixing, the absorbance was determined immediately at 560 nm, and the free radical scavenging rate was calculated according to the following formula: IR%=[1−(Ai−Aj)/A0]*100%; in which, Ai represents the absorbance of the mixture of the test solution and […], Aj represents the absorbance of the mixture of the test solution and the solvent; and A0 represents the absorbance of the mixture of SRSA and solvent. […]

O=C1O[C@H]([C@@H](O)CO)C(O)=C1O [Vitamin C]
DPPH scavenging rate % [1]: 97.2% | ABTS^+ scavenging rate % [2]: 98.1% | SRSA scavenging rate % [3]: 80.1%
